Measurements: patent US10703748B2, “Diazanaphthalen-3-yl carboxamides and preparation and use thereof” (Samumed, LLC, priority 2017, dated 2020)
Read-outs that look alike come from different tables or passages of the source.

Legend:
IL-6 = IL-6 inhibition in LPS-stimulated human peripheral blood mononuclear cells (HTRF); conditions: for inhibition at 10 µM: read-out: percentage in parentheses after EC50 >10
GSK3β kinase = GSK3β kinase (Homo sapiens, UniProt P49841); experiment: GSK3β kinase activity (Ser/Thr 09 peptide Z-lyte FRET assay); format: biochemical; conditions: recombinant kinase, 46 μM ATP, one hour at room temperature; read-out: EC50
[1] = tested on: Tau phosphorylation at Ser396 (pSer396); experiment: Tau phosphorylation at Ser396 (pSer396) in SH-SY5Y cells, ELISA / western blot; format: cell-based, human; conditions: SH-SY5Y cells, overnight (16-18 h), read-out: pSer396 Tau EC50;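 further: decrease in pSer396 Tau measured in lysates of treated cells by colorimetric ELISA or chemiluminescent western blot, same pSer396 antibody for both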
Description: Two days before treatment, cells were seeded onto 96 well plates at 5×10^4 cells/well.
The above synthesized compounds were screened using the cell assay procedure to assess decrease Tau phosphorylation at Ser396 (pSer396) described below.
Cells were lysed with RIPA buffer complemented with phosphatase and protease inhibitors then lysates were spun down at 12,000 g for 10 min to remove any cellular debris.

[2] = tested on: secreted cytokines TNFα, IL-6 and KC-GRO; experiment: Secreted cytokines in Lipopolysaccharide-stimulated BV-2 cells (Table 9 does not say which cytokine); format: cell-based, mouse; conditions: read-out: EC50
DYRK1A kinase = DYRK1A kinase (Homo sapiens, UniProt Q13627); experiment: DYRK1A kinase activity (Ser/Thr 18 peptide Z-lyte FRET assay); format: biochemical; conditions: recombinant DYRK1A, 30 μM ATP, one hour at room temperature;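 further: kinase activity read as coumarin/fluorescein emission ratio after development step, with unphosphorylated and phosphorylated peptide forms setting 0% and 100% controls, values from dose-response curves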
[3] = tested on: α-smooth muscle actin (aSMA) positive LL29 cells; experiment: Inhibition of the fibrotic process: αSMA staining in TGF-β1 treated LL29 fibroblasts from IPF patients; conditions: for inhibition at 10 µM: read-out: percentage in parentheses after EC50 >10
[4] = tested on: SW480 colon carcinoma cells; experiment: Cell viability assay (CellTiter-Glo); conditions: for inhibition at 10 µM: SW480, read-out: percent inhibition at 10 μM
[5] = tested on: Wnt-responsive Sp5-Luc reporter in SW480 colon carcinoma cells; experiment: Screening assay for Wnt activity (Sp5-Luc reporter gene assay); conditions: for inhibition at 10 µM: SW480, read-out: percent inhibition at 10 μM

GSK3β kinase, sequence (P49841 whole entry): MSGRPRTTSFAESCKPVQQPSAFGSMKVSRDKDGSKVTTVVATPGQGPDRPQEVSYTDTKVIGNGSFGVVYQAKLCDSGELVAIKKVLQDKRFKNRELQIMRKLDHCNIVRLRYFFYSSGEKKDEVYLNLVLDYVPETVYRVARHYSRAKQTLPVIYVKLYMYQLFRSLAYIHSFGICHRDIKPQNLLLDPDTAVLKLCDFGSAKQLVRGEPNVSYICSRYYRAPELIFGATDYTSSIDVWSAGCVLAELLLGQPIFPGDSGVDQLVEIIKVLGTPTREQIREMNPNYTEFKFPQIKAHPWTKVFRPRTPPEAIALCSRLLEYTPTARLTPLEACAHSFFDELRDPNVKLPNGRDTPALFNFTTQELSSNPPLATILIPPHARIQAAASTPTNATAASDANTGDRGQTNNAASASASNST

Structure (SMILES) | EC50 (IL-6; Homo sapiens, PBMC, 22 h) [nM] | EC50 (GSK3β kinase) [nM] | EC50 ([1]; Homo sapiens) [nM] | EC50 ([2]; Mus musculus, BV-2, 5 h) [nM] | EC50 (DYRK1A kinase) [nM] | EC50 ([3]; Homo sapiens, Fibroblast, 96 h) [nM] | EC50 ([4]; Homo sapiens, SW480, 96 h) [nM] | EC50 ([5]; Homo sapiens, SW480) [nM] | inhibition at 10 µM ([3]; Homo sapiens, Fibroblast) [%] | inhibition at 10 µM ([4]; Homo sapiens) [%] | inhibition at 10 µM ([5]; Homo sapiens) [%] | inhibition at 10 µM (IL-6; Homo sapiens, PBMC) [%] | EC50 (IL-6; huPBMCs, LPS 50 ng/mL, 22 hours, curves starting from 10 μM) [nM] | percentage in parentheses after EC50 >10 (IL-6; huPBMCs, LPS, given beside >10 μM, meaning not given) [%] | EC50 [1] [nM] | EC50 ([2]; BV-2 cells, LPS 250 ng/mL 5 hours, compounds overnight, 10 μM to […], cytokine not named in Table 9) [nM] | EC50 ([3]; LL29 fibroblasts from IPF patients, TGF-β1 20 ng/mL, 4 days, curves from 10 μM to 0.94 nM) [nM] | EC50 ([4]; SW480 cells, four days, CellTiter-Glo) [nM] | EC50 ([5]; SW480 Sp5-Luc reporter cells, 36 to 48 hours) [nM] | percent inhibition at 10 μM ([5]; at 10 μM, given for EC50 of >10 μM, SW480 Sp5-Luc reporter) [%]
Cn1cc(-c2ccc3cnc(NC(=O)C4CC4)cc3n2)cn1 [Compound 2, N-(2-(1-Methyl-1H-pyrazol-4-yl)-1,6-naphthyridin-7-yl) cyclopropanecarboxamide] | 3160 | 20 | 396 | 1700 | 18 | 677 | 2470 | 2940 |  |  |  |  |  |  |  |  |  |  |  | 
Cn1cc(-c2ccc3cnc(NC(=O)[C@H]4CC[C@H](N5CCOCC5)CC4)cc3n2)cn1 [Compound 5, trans-N-(2-(1-methyl-1H-pyrazol-4-yl)-1,6-naphthyridin-7-yl)-4-morpholinocyclohexane-1-carboxamide] | 3300 | 138 | 2000 | 400 | 7 | > 10000 | > 10000 | > 10000 | 9 | 39.9 | 47.9 |  |  |  |  |  |  |  |  | 
Cn1cc(-c2ccc3cnc(NC(=O)C4CCNCC4)cc3n2)cn1 [Compound 11, N-(2-(1-Methyl-1H-pyrazol-4-yl)-1,6-naphthyridin-7-yl)piperidine-4-carboxamide] | 2830 | 101 | 3500 | 926 | 14 | 2540 | 5800 | 3190 |  |  |  |  |  |  |  |  |  |  |  | 
CC(C)CN1CCC(C(=O)Nc2cc3nc(-c4cnn(C)c4)ccc3cn2)CC1 [Compound 16, 1-Isobutyl-N-(2-(1-methyl-1H-pyrazol-4-yl)-1,6-naphthyridin-7-yl) piperidine-4-carboxamide] | > 10000 | 277 | 923 | 111 | 40 | 251 | > 10000 | 1540 |  | 45.1 |  | 52.2 |  |  |  |  |  |  |  | 
Cn1cc(-c2ccc3cnc(NC(=O)[C@H]4CC[C@H](N)CC4)cc3n2)cn1 [Compound 41, trans-4-amino-N-(2-(1-methyl-1H-pyrazol-4-yl)-1,6-naphthyridin-7-yl)cyclohexane-1-carboxamide] | 2770 | 429 | > 10000 | 408 | 10 | 663 | > 10000 | 1310 |  | 31.8 |  |  |  |  |  |  |  |  |  | 
CN(CC(=O)Nc1cc2nc(-c3cnn(C)c3)ccc2cn1)C1CCC1 [Compound 56, 2-(Cyclobutyl(methyl)amino)-N-(2-(1-methyl-1H-pyrazol-4-yl)-1,6-naphthyridin-7-yl)acetamide] | > 10000 | 59 | 1500 | 1140 | 21 | 5180 | > 10000 | 3390 |  | 35 |  | 6.3 |  |  |  |  |  |  |  | 
Cn1cc(-c2ccc3cnc(NC(=O)[C@H]4CCCN4)cc3n2)cn1 [Compound 62, (R)—N-(2-(1-Methyl-1H-pyrazol-4-yl)-1,6-naphthyridin-7-yl)pyrrolidine-2-carboxamide] | 4830 | 9 | 699 | 557 | 56 | > 10000 | > 10000 | > 10000 | 8.3 | 38.3 | 43.1 |  |  |  |  |  |  |  |  | 
Cn1cc(-c2ccc3cnc(NC(=O)C4CCN(S(C)(=O)=O)CC4)cc3n2)cn1 [Compound 71, N-(2-(1-Methyl-1H-pyrazol-4-yl)-1,6-naphthyridin-7-yl)-1-(methylsulfonyl)piperidine-4-carboxamide] | 5490 | 18 | 426 | 93 | 3 | 420 | > 10000 | 559 |  | 40.7 |  |  |  |  |  |  |  |  |  | 
O=C(Nc1cc2nc(-c3cnn4c3CN(CCF)CC4)ccc2cn1)C1CCC(F)(F)CC1 [Compound 317] |  |  |  |  |  |  |  |  |  |  |  |  | > 10000 | 8.0 | 35 | 66 | 935 | 3530 | > 10000 | 50.0
